Results reported in PubChem BioAssay AID222 (DTP/NCI, 2004).
Several values for one entry are separate records, joined by “and”; a condition that tells them apart may be missing. Equal entries are not always repeated. Toxic doses and inconclusive results are not listed. How the source made its calls: active means survival T/C of 150% or more; inactive means T/C below 125% in these data.

Tested on: C57BL/6 mice, intracerebral ependymoblastoma, median survival T/C
Assay: NCI In Vivo Anticancer Drug Screen. Data for tumor model Ependymoblastoma (intracerebral) in C57BL/6 mice
Conditions: endpoint: median survival time, higher = longer survival
Description: The antitumor activity of compounds was measured in mice bearing transplantable tumors. Survival or tumor size were measured and the results are expressed as the measurement made in the treated group (T) divided by the measurement made in the vehicle treated control group (C). The tumor model used in this assay is Ependymoblastoma (intracerebral) in C57BL/6 mice

[1] = dose: 10.0 mg/kg/injection, schedule: Q01DX005 (ip), vehicle: Klucel (hydroxypropylcellulose) (HPC)
[2] = dose: 20.0 mg/kg/injection, schedule: Q01DX005 (ip), vehicle: Klucel (hydroxypropylcellulose) (HPC)
[3] = dose: 0.25 mg/kg/injection, schedule: Q01DX005 (ip), vehicle: saline
[4] = dose: 0.5 mg/kg/injection, schedule: Q01DX005 (ip), vehicle: saline
[5] = dose: 1.0 mg/kg/injection, schedule: Q01DX005 (ip), vehicle: saline
[6] = dose: 1.0 mg/kg/injection, schedule: Q01DX005 (oral), vehicle: saline
[7] = dose: 2.0 mg/kg/injection, schedule: Q01DX005 (ip), vehicle: saline
[8] = dose: 4.0 mg/kg/injection, schedule: Q01DX005 (oral), vehicle: saline
[9] = dose: 8.0 mg/kg/injection, schedule: Q01DX005 (oral), vehicle: saline
[10] = dose: 32.0 mg/kg/injection, schedule: Q01DX005 (ip), vehicle: saline with Tween-80
[11] = dose: 64.0 mg/kg/injection, schedule: Q01DX005 (ip), vehicle: saline with Tween-80

Measured: T/C

N=C(N)SCc1c2ccccc2c(CSC(=N)N)c2ccccc12
inactive: dose: 2.5 mg/kg/injection, schedule: Q01DX005 (ip), vehicle: Klucel (hydroxypropylcellulose) (HPC) 99 % of control | dose: 5.0 mg/kg/injection, schedule: Q01DX005 (ip), vehicle: Klucel (hydroxypropylcellulose) (HPC) 100 % of control | [1] 90 % of control | [2] 102 % of control

COc1cccc2c1C(=O)c1c(O)c3c(c(O)c1C2=O)C[C@@](O)(C(=O)CO)C[C@@H]3OC1CC(N)C(O)C(C)O1 (some centres undefined)
inactive: dose: 0.12 mg/kg/injection, schedule: Q01DX001 (ip), vehicle: saline 96 % of control | dose: 0.25 mg/kg/injection, schedule: Q01DX001 (ip), vehicle: saline 86 % of control | [3] 108 % of control | dose: 0.25 mg/kg/injection, schedule: Q01DX009 (ip), vehicle: saline 107 % of control | dose: 0.25 mg/kg/injection, schedule: Q07DX003 (ip), vehicle: saline 106 % of control | dose: 0.25 mg/kg/injection, schedule: Q## X006 (ip), vehicle: saline 100 % of control | dose: 0.5 mg/kg/injection, schedule: Q01DX001 (ip), vehicle: saline 88 % of control | [4] 108 % of control | dose: 0.5 mg/kg/injection, schedule: Q01DX009 (ip), vehicle: saline 103 % of control | dose: 0.5 mg/kg/injection, schedule: Q## X006 (ip), vehicle: saline 119 % of control | dose: 0.5 mg/kg/injection, schedule: Q#A X002 (ip), vehicle: saline 105 % of control | dose: 1.0 mg/kg/injection, schedule: Q01DX001 (ip), vehicle: saline 96 % of control (2×) and 100 % of control | [5] 110 % of control | [6] 100 % of control | dose: 1.0 mg/kg/injection, schedule: Q07DX003 (ip), vehicle: saline 96 % of control | dose: 1.0 mg/kg/injection, schedule: Q## X006 (ip), vehicle: saline 110 % of control | dose: 1.0 mg/kg/injection, schedule: Q#A X002 (ip), vehicle: saline 97 % of control | dose: 2.0 mg/kg/injection, schedule: Q01DX001 (ip), vehicle: saline 104 % of control and 106 % of control and 111 % of control | [7] 103 % of control | dose: 2.0 mg/kg/injection, schedule: Q07DX003 (ip), vehicle: saline 101 % of control | dose: 2.0 mg/kg/injection, schedule: Q## X006 (ip), vehicle: saline 119 % of control | dose: 2.0 mg/kg/injection, schedule: Q#A X002 (ip), vehicle: saline 93 % of control | dose: 4.0 mg/kg/injection, schedule: Q01DX001 (oral), vehicle: saline 101 % of control and 109 % of control | [8] 94 % of control | dose: 4.0 mg/kg/injection, schedule: Q#A X002 (ip), vehicle: saline 101 % of control and 108 % of control | dose: 8.0 mg/kg/injection, schedule: Q01DX001 (oral), vehicle: saline 92 % of control and 97 % of control | [9] 100 % of control | dose: 8.0 mg/kg/injection, schedule: Q#A X002 (ip), vehicle: saline 97 % of control | dose: 16.0 mg/kg/injection, schedule: Q01DX001 (ip), vehicle: saline 101 % of control | dose: 16.0 mg/kg/injection, schedule: Q01DX001 (oral), vehicle: saline 96 % of control and 98 % of control and 106 % of control | dose: 16.0 mg/kg/injection, schedule: Q#A X002 (ip), vehicle: saline 89 % of control | dose: 32.0 mg/kg/injection, schedule: Q01DX001 (ip), vehicle: saline 100 % of control | dose: 32.0 mg/kg/injection, schedule: Q01DX001 (oral), vehicle: saline 89 % of control and 92 % of control and 109 % of control | dose: 32.0 mg/kg/injection, schedule: Q#A X002 (ip), vehicle: saline 86 % of control | dose: 64.0 mg/kg/injection, schedule: Q01DX001 (oral), vehicle: saline 103 % of control and 107 % of control and 86 % of control | dose: 64.0 mg/kg/injection, schedule: Q#A X002 (ip), vehicle: saline 88 % of control | dose: 128.0 mg/kg/injection, schedule: Q01DX001 (ip), vehicle: saline 88 % of control | dose: 128.0 mg/kg/injection, schedule: Q01DX001 (oral), vehicle: saline 93 % of control and 103 % of control and 107 % of control | dose: 128.0 mg/kg/injection, schedule: Q#A X002 (ip), vehicle: saline 86 % of control | dose: 256.0 mg/kg/injection, schedule: Q01DX001 (oral), vehicle: saline 103 % of control and 111 % of control

S=c1nc[nH]c2nc[nH]c12
inactive: dose: 10.0 mg/kg/injection, schedule: Q01DX001 (ip), vehicle: Klucel (hydroxypropylcellulose) (HPC) 103 % of control | [1] 89 % of control and 103 % of control | dose: 20.0 mg/kg/injection, schedule: Q01DX001 (ip), vehicle: Klucel (hydroxypropylcellulose) (HPC) 91 % of control | [2] 107 % of control and 122 % of control | dose: 40.0 mg/kg/injection, schedule: Q01DX001 (ip), vehicle: Klucel (hydroxypropylcellulose) (HPC) 109 % of control | dose: 80.0 mg/kg/injection, schedule: Q01DX001 (ip), vehicle: Klucel (hydroxypropylcellulose) (HPC) 113 % of control | dose: 160.0 mg/kg/injection, schedule: Q01DX001 (ip), vehicle: Klucel (hydroxypropylcellulose) (HPC) 102 % of control

Clc1ccc(C(c2ccc(Cl)cc2)C(Cl)(Cl)Cl)cc1
inactive: dose: 8.0 mg/kg/injection, schedule: Q01DX005 (ip), vehicle: Klucel (hydroxypropylcellulose) (HPC) 92 % of control | dose: 16.0 mg/kg/injection, schedule: Q01DX005 (ip), vehicle: Klucel (hydroxypropylcellulose) (HPC) 101 % of control | dose: 32.0 mg/kg/injection, schedule: Q01DX005 (ip), vehicle: Klucel (hydroxypropylcellulose) (HPC) 96 % of control

CN(C)CC(=O)c1ccc(O)c(O)c1
inactive: dose: 100.0 mg/kg/injection, schedule: Q01DX005 (ip), vehicle: saline 101 % of control | dose: 200.0 mg/kg/injection, schedule: Q01DX005 (ip), vehicle: saline 99 % of control | dose: 400.0 mg/kg/injection, schedule: Q01DX005 (ip), vehicle: saline 108 % of control

COc1cc([C@@H]2c3cc4c(cc3[C@@H](OC3OC5CO[C@@H](c6cccs6)OC5C(O)C3O)[C@H]3COC(=O)[C@H]23)OCO4)cc(OC)c1O (some centres undefined)
inactive: dose: 0.06 mg/kg/injection, schedule: Q01DX005 (ip), vehicle: saline 101 % of control | dose: 0.12 mg/kg/injection, schedule: Q01DX005 (ip), vehicle: saline 95 % of control | [3] 97 % of control | [4] 99 % of control | [5] 104 % of control | [6] 101 % of control | [7] 114 % of control | [8] 104 % of control | [9] 100 % of control | dose: 16.0 mg/kg/injection, schedule: Q01DX005 (oral), vehicle: saline 95 % of control

O=S(=O)(O)O
inactive: dose: 16.0 mg/kg/injection, schedule: Q01DX005 (ip), vehicle: saline with Tween-80 90 % of control | [10] 94 % of control | [11] 112 % of control

O=C(N/N=C\c1cc(Br)cc(Br)c1O)N/N=C/c1cc(Br)cc(Br)c1O
inactive: [10] 88 % of control | [11] 97 % of control | dose: 128.0 mg/kg/injection, schedule: Q01DX005 (ip), vehicle: saline with Tween-80 88 % of control | dose: 256.0 mg/kg/injection, schedule: Q01DX005 (ip), vehicle: saline with Tween-80 93 % of control
